Assay [1] relates to Mus musculus. In words: In vivo inhibitory activity (1 mg/kg) against endotoxin-induced hemoconcentration in ICR mice with endotoxin concentration of 55 mg/kg. In kind it is functional.
Assay [2] has as its system Cavia porcellus. The experiment in a line: In vivo PAF-induced bronchoconstriction in guinea pigs at a dose of 0.01 mg/kg. In kind it is functional.
Assay [3] relates to Cavia porcellus. In words: In vivo inhibitory activity against platelet aggregation in guinea pigs. In kind it is functional, organism-based.
Assay [4] concerns Mus musculus. In words: Survival ratio of ICR mice by the administration (0.3 mg/kg) along with endotoxin (55mg/Kg, ip) after 18 h. In kind it is functional.
For assay [5], the system named is Mus musculus. The experiment in a line: Survival ratio of ICR mice by the administration (0.3 mg/kg) along with endotoxin (55mg/Kg, ip) after 1 hr. In kind it is functional.
The test system of assay [6] is Mus musculus. In words: Survival ratio of ICR mice by the administration (0.3 mg/kg) along with endotoxin (55mg/Kg, ip) after 42h. In kind it is functional.
Assay [7] has as its system Mus musculus. In words: Survival ratio of ICR mice by the administration (0.3 mg/kg) along with endotoxin (55mg/Kg, ip) after 66h. In kind it is functional.
Assay [8] concerns Mus musculus. The experiment in a line: Survival ratio of ICR mice by the administration (0.3 mg/kg) along with endotoxin (55mg/Kg, ip) after 24 hr. In kind it is functional.
For assay [9], the system named is Mus musculus. The experiment in a line: Survival ratio of ICR mice by the administration (0.3 mg/kg) along with endotoxin (55mg/Kg, ip) after 2 hr. In kind it is functional.
Assay [10] has as its system Mus musculus. In words: Survival ratio of ICR mice by the administration (0.3 mg/kg) along with endotoxin (55mg/Kg, ip) after 48 hr. In kind it is functional.
The test system of a further assay is Rattus norvegicus. The experiment in a line: In vivo inhibitory activity against PAF-induced hypertension in SD rats by ip administration. In kind it is functional.
Assay [11] relates to Cavia porcellus. The experiment in a line: In vivo inhibitory activity against PAF-induced bronchoconstriction in guinea pigs at a dose of 0.01 mg/kg. In kind it is functional.
A short description of assay [12]: In vitro inhibitory activity against PAF-induced aggregation of rabbit platelets.

With `CCCCCCCCCCCCCC(=O)OC(CCCCCCCCCCC)CC(=O)O[C@@H]1[C@@H](NC(=O)CC(CCCCCCCCCCC)OC(=O)CCCCCCCCCCC)[C@H](O[C@@H]2C[C@H](OC(=O)CC(O)CCCCCCCCCCC)[C@@H](NC(=O)CC(O)CCCCCCCCCCC)[C@@H](O)O2)O[C@H](CO)[C@H]1OP(=O)(O)O.CCCCCCCCCCCCCCCCCCNC(=O)OC[C@H]1C[C@H](COC(=O)N(Cc2cccc[n+]2CC)C(C)=O)C1.[I-]` (stereo partly specified), in the assay with Mus musculus [1], the Change was 25% and the Change of hemoconcentration is on record as 5.9.
On to `CCCCCCCCCCCCCC(=O)OC(CCCCCCCCCCC)CC(=O)OC1C(NC(=O)CC(CCCCCCCCCCC)OC(=O)CCCCCCCCCCC)C(OC2CC(OC(=O)CC(O)CCCCCCCCCCC)C(NC(=O)CC(O)CCCCCCCCCCC)C(O)O2)OC(CO)C1OP(=O)(O)O.CCCCCCCCCCCCCCCCCCNC(=O)OC[C@@H]1C[C@@H](COC(=O)N(Cc2cccc[n+]2CC)C(C)=O)N1C(C)=O.[Cl-]` (stereo unspecified), for which, in the assay on Mus musculus [1], the Change is 55% and the Change of hemoconcentration turned out to be 13.1.
By IC50 is commonly meant the point on the concentration scale where inhibition reaches its midpoint. A word on the ED50: it is the dose that gives a 50% effect, or the effect in half of the subjects. Low values mean an effect at a small dose, high ones a need for a large dose. What is called inhibition in vivo is the percentage by which the read-out fell short of the control. As for `CCCCCCCCCCCCCCCCNC(=O)OC[C@@H]1C[C@@H](COC(=O)N(Cc2cccc[n+]2CC)C(C)=O)S1.[Cl-]`, the Absolute in the assay with Cavia porcellus [2] is listed as 7%. In addition, the IC50 in the assay with Cavia porcellus [3] was found to be 0.021 µM. For the same compound, the Survival ratio in the assay on Mus musculus [4] is on record as 80; in the assay with Mus musculus [5], 100; in the assay with Mus musculus [6], 60; with Mus musculus [7], 60; with Mus musculus [8] it was 73; with Mus musculus [9] it was 100. In addition, the Survival ratio in the assay on Mus musculus [10] is reported as 60. Besides, the ED50 with Rattus norvegicus came out at 0.16 mg/kg. In the assay with Cavia porcellus [11], this compound came in with an inhibition in vivo at 0.01 mg/kg of 92%.
For the compound `CCCCCCCCCCCCCC(=O)OC(CCCCCCCCCCC)CC(=O)OC1C(NC(=O)CC(CCCCCCCCCCC)OC(=O)CCCCCCCCCCC)C(OC2CC(OC(=O)CC(O)CCCCCCCCCCC)C(NC(=O)CC(O)CCCCCCCCCCC)C(O)O2)OC(CO)C1OP(=O)(O)O.CCCCCCCCCCCCCCCCCCNC(=O)OC[C@H]1C[C@H](COC(=O)N(Cc2cccc[n+]2CC)C(C)=O)O1.[I-]` (stereo unspecified), in the assay on Mus musculus [1], the Change is 53% and the Change of hemoconcentration is 12.7.
Compound `CCCCCCCCCCCCCCCCCCNC(=O)OC[C@H]1C[C@H](COC(=O)N(Cc2cccc[n+]2CC)C(C)=O)C1.[I-]` returned an Absolute in the assay on Cavia porcellus [2] of 12%. This compound returned an IC50 with Cavia porcellus [3] of 0.056 µM. Moreover, the Survival ratio amounted to 80 in the assay with Mus musculus [4]; 100 with Mus musculus [5]; 40 with Mus musculus [6]; 27 with Mus musculus [7]; 73 in the assay with Mus musculus [8]; 100 with Mus musculus [9]. Also, in the assay on Mus musculus [10], the Survival ratio is 33. In the assay on Rattus norvegicus, it took a dose of 0.58 mg/kg to reach the 50% effect level (ED50). Further, the inhibition in vivo at 0.01 mg/kg with Cavia porcellus [11] turned out to be 87%.
Turning to `CCCCCCCCCCCCCC(=O)OC(CCCCCCCCCCC)CC(=O)OC1C(NC(=O)CC(CCCCCCCCCCC)OC(=O)CCCCCCCCCCC)C(OC2CC(OC(=O)CC(O)CCCCCCCCCCC)C(NC(=O)CC(O)CCCCCCCCCCC)C(O)O2)OC(CO)C1OP(=O)(O)O` (stereo unspecified), in the assay with Mus musculus [1], the Change was determined as 100% and the Change of hemoconcentration turned out to be 24.
`CCCCCCCCCCCCCCCCCCNC(=O)OCC(COC(=O)N(Cc1cccc[n+]1CC)C(C)=O)OC.[Cl-]` (stereo unspecified) [CV-6209] gave an Absolute in the assay on Cavia porcellus [2] of 12%. The compound further showed a Change in the assay on Mus musculus [1] of 48%. Also, it took a dose of 0.35 mg/kg to reach the 50% effect level in the assay with Rattus norvegicus (ED50). For the same compound, the inhibition in vivo at 0.01 mg/kg in the assay with Cavia porcellus [11] was found to be 87%.
Consider `CCCCCCCCCCCCCCCCCCNC(=O)OC[C@H]1C[C@H](COC(=O)N(Cc2cccc[n+]2CC)C(C)=O)N1C(C)=O.[Cl-]`, for which, in the assay on Cavia porcellus [2], the Absolute came out at 5%. Also, the IC50 in the assay on Cavia porcellus [3] amounted to 0.029 µM. For the same compound, the Survival ratio was determined as 73 in the assay with Mus musculus [4]; 100 in the assay on Mus musculus [5]; 53 with Mus musculus [6]; 53 with Mus musculus [7]; 73 with Mus musculus [8]; 100 with Mus musculus [9]. In the assay with Mus musculus [10], the Survival ratio is given as 53. This compound showed a median effective dose (ED50) in the assay with Rattus norvegicus of 0.33 mg/kg. This compound also gave an inhibition in vivo at 0.01 mg/kg with Cavia porcellus [11] of 95%.
On to `CCCCCCCCCCCCCCCCCCNC(=O)OC[C@H]1C[C@H](COC(=O)N(Cc2cccc[n+]2CC)C(C)=O)O1.[I-]`, for which the Absolute with Cavia porcellus [2] amounted to 7%. Moreover, in the assay with Rattus norvegicus, it took a dose of 0.28 mg/kg to reach the 50% effect level (ED50). For the same compound, in the assay with Cavia porcellus [11], the inhibition in vivo at 0.01 mg/kg came out at 92%.
In turn, `C[C@@H]1C(=O)O[C@H]2C(O)[C@@]34[C@H]5C[C@@H](C(C)(C)C)[C@]36[C@@H](OC(=O)[C@@H]6O)O[C@@]4(C(=O)O5)[C@@]12O` (single isomer, unassigned) [GINKOLIDE B] gave an IC50 in assay [12] of 0.418 µM.
In the assay with Mus musculus [1], `CCCCCCCCCCCCCC(=O)OC(CCCCCCCCCCC)CC(=O)OC1C(NC(=O)CC(CCCCCCCCCCC)OC(=O)CCCCCCCCCCC)C(OC2CC(OC(=O)CC(O)CCCCCCCCCCC)C(NC(=O)CC(O)CCCCCCCCCCC)C(O)O2)OC(CO)C1OP(=O)(O)O.CCCCCCCCCCCCCCCCNC(=O)OC[C@@H]1C[C@@H](COC(=O)N(Cc2cccc[n+]2CC)C(C)=O)S1.[Cl-]` (stereo unspecified) returned a Change of 53% and a Change of hemoconcentration of 12.7.

For the origin of these results see ChEMBL document CHEMBL1128151, “Synthesis and bioactivities of heterocyclic lipids as PAF antagonists. 2” (Bioorg Med Chem Lett, 1995).
